Experimental findings from patent publication US20260125362A1, “TARGETED PROTEIN DEGRADATION OF PARP14 FOR USE IN THERAPY” (AbbVie Biotechnology Ltd, priority 2019, published 2026) are described below.

Assay [1] has as its target T1, catalytic domain of human PARP14 (Homo sapiens, UniProt Q460N5).
T1 construct: made in house; host or cells: Escherichia coli
T1 sequence (Q460N5 1611-1801): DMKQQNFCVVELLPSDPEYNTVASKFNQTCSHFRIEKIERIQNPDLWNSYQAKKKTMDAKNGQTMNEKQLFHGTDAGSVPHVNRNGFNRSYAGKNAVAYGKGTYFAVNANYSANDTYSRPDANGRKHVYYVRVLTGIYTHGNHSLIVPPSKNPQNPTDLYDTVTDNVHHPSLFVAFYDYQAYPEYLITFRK
The experiment in a line: Enzymatic assay for inhibition of PARP14 (DELFIA, auto-modification with biotin-NAD). As to conditions: compounds corresponding to group Q. Type of assay: biochemical. Here is the method:
The catalytic domain of human PARP14 (residues 1611 to 1801, GenBank Accession No. NM_017554) was overexpressed in Escherichia coli cells. An N-teininal His-TEV fusion tag was used to purify the protein from cell lysates. The His-TEV tag was left on the protein for use in the enzymatic assay.
Enzymatic inhibition of PARP14 was measured using a dissociation-enhanced lanthanide fluorescence immunoassay (DELFIA) monitoring the auto-modification of PARP14 by biotinylated nicotinamide adenine dinucleotide (biotin-NAD), 1 μL of a dose response curve of each test compound was spotted in 384-well nickel-coated white microplates (Therno) using a Mosquito (TTP Labtech). Reactions were performed in a 50 p L volume by adding 40 μL of PARP14 in assay buffer (20 mM HEPES pH=8, 100 mM NaCl, 0.1% bovine serum albumin. 2 mM DTT and 0.002% Tween20), incubating with test compound at 25° C. for 30 min, then adding 10 μL of biotin-NA D (Biolog). The final concentrations of PARP14 and biotin-NAD are 50 nM and 3 μM, respectively. Reactions proceeded at 25° C. for 3 h, then were quenched with 5 μL of 10 mM unmodified nicotinamide adenine dinucleotide (Sigma-Aldrich). The quenched reactions were washed 3 times with 100 μL of TBST wash buffer (50 mM Tris-HCl, 150 mnM NaCl and 0.1% Tween20). Next, to the washed and dried plate was added 25 μL of DELFIA Europium-NI streptavidin (Perkin Elmer) diluted in DELFIA assay buffer (Perkin Elmer). After a 30 min incubation at 25° C., the plate was washed 5 times with TBST wash buffer. Finally, 25 μL of DELFIA enhancement solution was added. After a 5 min incubation the plate was read on an Envision platereader equipped with a LANCE/DELFIA top mirror (Perkin Elmer) using excitation of 340 nm and emission of 615 nm to measure the amount of Europium present in each well, informing on the amount of biotin-NAD that was transferred in the automodification reaction. Control wells containing a negative control of 2% DMSO vehicle or a positive control of 100 μM rucaparib were used to calculate the % inhibition as described below:
where ex615cmpd is the emission from the compound treated well, ex615min, is the emission from the rucaparib treated positive control well and ex615max is the emission from the DMSO treated negative control well.
The % inhibition values were plotted as a function of compound concentration and the following 4-parameter fit was applied to derive the IC50 values:
where top and bottom are normally allowed to float, but may be fixed at 100 or 0 respectively in a 3-parameter fit. The Hill Coefficient is normally allowed to float but may also be fixed at 1 in a 3-parameter fit. Y is the % inhibition and X is the compound concentration.

Assay [2] has as its target T2, PARP14 (Homo sapiens, UniProt Q460N5).
T2 construct: endogenous in cells; host or cells: KYSE270
Put plainly: PARP14 degradation assay (Western blot) in KYSE270 cells. Particulars: 24 h. Type of assay: cell-based. Here is the method: KYSE270 cells were seeded at a density of […] in 6-well plates and incubated overnight. Once attached, cells were treated with the compounds of Examples 1-4 at increasing concentrations (0.001 μM, 0.01 μM, 0.1 μM, 1 μM, and 10 μM; 0.003 μM, 0.03 μM, 0.3 μM, and 3 μM were also evaluated for the compound of Example 1), or with DMSO for 24 h. Media was gently aspirated and cells washed 3 times with 2 mL of ice cold PBS while on ice. The PBS was completely aspirated and 75 μl freshly prepared lysis buffer (Thermo Fisher 78501) was added to cells before scraping into the buffer. Lysates were collected in microcentrifuge tubes and incubated on ice for 15 minutes. Lysates were centrifuged at 10,000 rpm for 15 min at 4° C. and supernatants collected into fresh microcentrifuge tubes. Protein concentration was measured using a reducing agent compatible with the Pierce BCA Protein Assay Kit (Thermo Fisher 23250). Samples were prepared in loading buffer (LI-COR 928-40004) containing 5% β-mercaptoethanol, and incubated at 95° C. for 5 min. Protein lysates were resolved on 4-12% Tris-Acetate gels in MOPS running buffer with 60 μg of protein per well. Western blot transfers were done with PVDF membranes (LI-COR Immobilon) with 20 volts for 14 minutes. Primary antibodies (PARP14: in house generated mouse antibody (15A6 LotIC), β-actin: D6A8 (8457)) were incubated at 1:1,000 dilution using the odyssey blocking buffer (LI-COR 927-50000) for 2 h at room temperature and detected with secondary antibody (LI-COR 926-68072, 926-32211). Mouse antibody 15A6 Lot1C was generated by immunizing with recombinant human PARP14 catalytic domain protein. After hybridoma fusion, the parental clones were screened for reactivity against PARP14 catalytic domain, which were then subcloned to generate monoclones including 15A6-1. Monoclonal supernatants were tested by Western blotting against THP-1 and THP-1 PARP14 KO cells to confirm reactivity. The PARP14 antibody was produced by culturing the 15A6-1 hybridoma monoclone in 1L of serum free media+2% low IgG FBS. […]
A general note: Immunoblotting shows a protein as a band on a membrane.

For assay [3], the system named is IL-10 production. Put plainly: Reduction of IL-10 production in IL-4 stimulated M2-like macrophages (ELISA). Type of assay: cell-based. Particulars: IL-4 stimulated M2-like macrophages from human monocytes; 1, 0.1 or 0.01 μM. Here is the method:
Monocytes were isolated from peripheral human blood and cultured in the presence of M-CSF and the compound of Example 1 (at 1, 0.1 or 0.01 μM) for 72 h. M-CSF differentiates monocytes into M-0 macrophages. Subsequently medium was replaced with fresh medium containing IL-4 and the compound of Example 1 (at 1, 0.1 or 0.01 μM), and cells were incubated for another 48 h. Isolation of primary human monocytes from whole blood: Primary monocytes were isolated from whole blood (iSPECIMEN; 500 mL) collected from healthy donors. Blood was diluted at a 1:1 ratio with EasySep buffer (STEMCELL Technologies 20144) and layered onto lymphoprep (STEMCELL Technologies 07811) in SepMate tubes (STEMCELL Technologies 85450) for PBMC isolation according to the manufacturer's instructions. […] Cells were treated with the compound of Example 1 or DMSO on day 6 after seeding at 1 μmol/L, 0.1 μmol/L, and 0.01 μmol/L. IL-10 determination: Levels of IL-10 in the supernatants of human primary M2 macrophages were determined with the IL-10 ELISA kit (STEMCELL Technologies 02013) according to the manufacturer's instructions. Briefly, supernatants were collected at the indicated time point and depleted of any floating cells before being stored at −80° C. until ready to use. IL-10 concentrations were determined from the kit's IL-10 standard curve and normalized to total cell protein.
Background: An ELISA detects its analyte on a solid surface through an enzyme-linked reagent.

T2 sequence (Q460N5 whole entry): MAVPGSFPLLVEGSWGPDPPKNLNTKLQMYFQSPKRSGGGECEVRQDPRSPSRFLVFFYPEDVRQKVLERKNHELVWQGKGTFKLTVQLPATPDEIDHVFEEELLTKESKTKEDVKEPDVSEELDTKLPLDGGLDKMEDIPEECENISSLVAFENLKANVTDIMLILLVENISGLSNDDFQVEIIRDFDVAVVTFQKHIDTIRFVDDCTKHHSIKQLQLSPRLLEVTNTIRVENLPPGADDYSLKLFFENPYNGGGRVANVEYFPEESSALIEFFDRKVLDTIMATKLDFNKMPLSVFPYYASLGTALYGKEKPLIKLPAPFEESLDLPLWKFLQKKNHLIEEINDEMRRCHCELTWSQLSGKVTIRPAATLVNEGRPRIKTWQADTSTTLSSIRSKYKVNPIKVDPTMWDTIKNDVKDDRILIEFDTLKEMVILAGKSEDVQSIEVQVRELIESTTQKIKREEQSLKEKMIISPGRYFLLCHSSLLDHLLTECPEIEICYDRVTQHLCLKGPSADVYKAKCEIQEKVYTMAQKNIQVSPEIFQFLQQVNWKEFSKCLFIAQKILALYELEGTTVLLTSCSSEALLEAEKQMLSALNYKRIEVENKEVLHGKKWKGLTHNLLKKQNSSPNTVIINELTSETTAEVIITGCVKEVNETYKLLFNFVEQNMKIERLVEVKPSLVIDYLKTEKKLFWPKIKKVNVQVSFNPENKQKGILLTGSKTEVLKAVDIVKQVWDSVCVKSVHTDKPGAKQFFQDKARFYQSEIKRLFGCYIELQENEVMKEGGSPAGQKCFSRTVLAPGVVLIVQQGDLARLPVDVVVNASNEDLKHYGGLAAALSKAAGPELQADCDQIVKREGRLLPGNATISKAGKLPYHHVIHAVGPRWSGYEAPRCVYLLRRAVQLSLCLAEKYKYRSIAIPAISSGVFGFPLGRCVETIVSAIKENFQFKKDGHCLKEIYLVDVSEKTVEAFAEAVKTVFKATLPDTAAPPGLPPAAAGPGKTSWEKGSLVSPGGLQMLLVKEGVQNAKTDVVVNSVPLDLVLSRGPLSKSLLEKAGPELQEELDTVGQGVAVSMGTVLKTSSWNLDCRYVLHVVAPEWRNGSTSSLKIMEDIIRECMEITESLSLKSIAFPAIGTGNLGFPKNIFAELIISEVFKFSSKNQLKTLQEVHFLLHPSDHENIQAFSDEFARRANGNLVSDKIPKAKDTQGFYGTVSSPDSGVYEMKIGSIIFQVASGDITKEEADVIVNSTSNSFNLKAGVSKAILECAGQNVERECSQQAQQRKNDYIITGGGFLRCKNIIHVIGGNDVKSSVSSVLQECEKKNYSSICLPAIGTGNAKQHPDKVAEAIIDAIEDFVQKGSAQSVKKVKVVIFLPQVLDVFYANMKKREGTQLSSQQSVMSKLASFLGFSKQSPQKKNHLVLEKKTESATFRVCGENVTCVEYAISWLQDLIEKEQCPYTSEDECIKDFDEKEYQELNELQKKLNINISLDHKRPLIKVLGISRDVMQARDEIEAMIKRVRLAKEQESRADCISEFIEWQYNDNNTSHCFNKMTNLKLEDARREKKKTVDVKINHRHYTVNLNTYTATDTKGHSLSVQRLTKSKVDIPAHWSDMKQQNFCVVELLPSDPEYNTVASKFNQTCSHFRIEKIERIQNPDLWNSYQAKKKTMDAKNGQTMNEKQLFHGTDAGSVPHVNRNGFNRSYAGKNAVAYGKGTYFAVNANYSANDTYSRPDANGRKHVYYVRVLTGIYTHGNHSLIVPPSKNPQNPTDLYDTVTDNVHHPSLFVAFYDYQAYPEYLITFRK

One may read the IC50 as the midpoint of a concentration-inhibition curve. On to `O=c1[nH]c(CSC2CCC(O)CC2)nc2cc(OCC3CCCOC3)cc(F)c12` (centres unmarked), for which the IC50 in assay [1] is under 1 µM.

`O=C(CN1CCC(SCc2nc3cc(NC4CCCC4)cc(F)c3c(=O)[nH]2)CC1)NCCCCCCNc1cccc2c1C(=O)N(C1CCC(=O)NC1=O)C2=O.O=C(O)C(F)(F)F` (centres unmarked) [Example 1, 2-(4-(((7-(Cyclopentylamino)-5-fluoro-4-oxo-3,4-dihydroquinazolin-2-yl)methyl)thio)piperidin-1-yl)-N-(6-((2-(2,6-dioxopiperidin-3-yl)-1,3-dioxoisoindolin-4-yl)amino)hexyl)acetamide trifluoroacetate]: the “hook effect at higher concentrations (PARP14 degradation)” value (from here on “hook effect at higher concentrations”) in assay [2] is given as “amelioration of efficacy”. Moreover, the “IL-10 production (IL-10 levels in tissue culture supernatant, ELISA)” value in assay [3] is on record as “decreased IL-10 production”.

In the case of `O=C1CCC(N2C(=O)c3cccc(NCCC(=O)N[C@H]4CC[C@H](SCc5nc6cc(OCC7CCOCC7)cc(F)c6c(=O)[nH]5)CC4)c3C2=O)C(=O)N1` (some centres unmarked) [Example 4, 3-((2-(2,6-dioxopiperidin-3-yl)-1,3-dioxoisoindolin-4-yl)amino)-N-((1r,4r)-4-(((5-fluoro-4-oxo-7-((tetrahydro-2H-pyran-4-yl)methoxy)-3,4-dihydroquinazolin-2-yl)methyl)thio)cyclohexyl)propanamide], the “hook effect at higher concentrations” value in assay [2] was “amelioration of efficacy”.

`O=c1[nH]c(CS[C@H]2CC[C@@H](O)CC2)nc2cc(OCC3CCOCC3)cc(F)c12`: the IC50 in assay [1] is under 1 µM.

The compound `O=c1[nH]c(CSC2CCNCC2)nc2cc(NC3CCCC3)cc(F)c12` returned an IC50 in assay [1] of under 1 µM.

Take `O=c1[nH]c(CS[C@H]2CC[C@H](O)CC2)nc2cc(OCC3CCOCC3)cc(F)c12`: the IC50 in assay [1] is under 1 µM.

Regarding `O=C1CCC(N2C(=O)c3cccc(NCCCCCCCC(=O)N[C@H]4CC[C@H](SCc5nc6cc(OCC7CCOCC7)cc(F)c6c(=O)[nH]5)CC4)c3C2=O)C(=O)N1` (some centres unmarked) [Example 3, 8-((2-(2,6-dioxopiperidin-3-yl)-1,3-dioxoisoindolin-4-yl)amino)-N-((1r,4r)-4-(((5-fluoro-4-oxo-7-((tetrahydro-2H-pyran-4-yl)methoxy)-3,4-dihydroquinazolin-2-yl)methyl)thio)cyclohexyl)octanamide], the “hook effect at higher concentrations” value in assay [2] was “amelioration of efficacy”.
